Test results from US10576101B2, “Roneparstat combined therapy of multiple myeloma” (Leadiant Biosciences SA, priority 2015, dated 2020).
Read-outs that look alike come from different tables or passages of the source.

What was measured:
[1] = test system: models of multiple myeloma, hematologic, and solid tumors; settings: cited from earlier work
proteasome = settings: in animals; cited from earlier work
HPSE-high cells = assay: Cell viability by MTT assay, roneparstat with carfilzomib; format: cell-based, human; settings: roneparstat 6.75 μM or carfilzomib 15 nM alone
Source text: CAG human myeloma cell line was established at the Myeloma Institute for Research and Therapy (Little Rock, Ark.). CAG cells with modified levels of heparanase expression have been extensively characterized and include (a) heparanase-low (HPSE-low) cells prepared by transfection with empty vector; and (b) heparanase-high (HPSE-high) cells prepared by transfection with vector containing the cDNA for human heparanase. Although HPSE-high cells express a 4-fold higher level of heparanase than do the HPSE-low cells, the elevated levels of enzyme activity present in HPSE-high cells are in the same range as that present in the bone marrow of many myeloma patients (Kelly T. et al, Cancer Res 2003; 63:8749-56). […] The preparation of the CAG-HPSE high cells is described in Yang Y, et al, The Journal Of Biological Chemistry, Vol. 282, No. 18, pp. 13326-13333, May 4, 2007 (see in particular page 13327, left column, the paragraph beginning with “For transfections . . . ”).
HPSE-high cells were seeded in serum free media overnight and then treated with 6.75 μM roneparstat (Rone) for 6 hours, washed and then treated with carfilzomib (CFZ) (15 nM) for 14 hours and viability was assessed by MTT assay. The MTT assay is a colorimetric assay for assessing cell viability, which takes its name from tetrazolium dye MTT (3-(4,5-dimethylthiazol-2-yl)-2,5-diphenyltetrazolium bromide). […]

[2] = test system: solid and hematologic tumor cells; settings: cited from earlier work
CAG HPSE high cells [3] = format: in vivo, Mouse, CB. 17/Icr SCID
CAG HPSE high cells [4] = assay: Experimental metastasis model of myeloma, roneparstat in vivo combination with bortezomib; parameters: species or system Mouse, CB. 17/Icr SCID; settings: roneparstat 120 mg/kg/day s.c., bortezomib 0.5 mg/kg/twice a week i.p., two weeks, serum Day 21
CAG HPSE high cells [5] = format: in vivo, Mouse, CB. 17/Icr SCID; remark: listed apart in the source
diabetic nephropathy = settings: mouse models of diabetic nephropathy; cited from earlier work
multiple myeloma = settings: high-dose 200 mg/m^2 followed by ASCT after VAD induction, patients younger than 65 years; cited from earlier work
[6] = test system: nonclinical tumor models, including multiple myeloma; settings: cited from earlier work
[7] = test system: a variety of cancer cell types; settings: cited from earlier work
[8] = roneparstat 60 mg/kg/day s.c., melphalan 1 mg/kg/week i.p., two weeks, serum Day 21

For `CC(C)C[C@H](NC(=O)[C@H](CCc1ccccc1)NC(=O)CN1CCOCC1)C(=O)N[C@@H](Cc1ccccc1)C(=O)N[C@@H](CC(C)C)C(=O)[C@@]1(C)CO1` [Carfilzomib, (2S)—N—((S)-1-((S)-4-methyl-1-((R)-2-methyloxiran2-yl)-1-oxopentan-2-ylcarbamoyl)-2-phenylethyl)-2-((S)-2-(2-morpholinoacetamido)4-phenylbutanamido)-4-methylpentanamide], the tumor growth [1] is listed as “delayed tumor growth”, the “proteasome activity in blood and tissue” value (proteasome) is listed as “inhibited proteasome activity” and the “decrease of viability (MTT), agent administered alone” value (HPSE-high cells) is listed as “neither roneparstat or carfilzomib provided significant results”. For the same compound, the “antiproliferative and proapoptotic activities in vitro” value [2] was “had antiproliferative and proapoptotic activities”.
For Roneparstat, the “animals with detectable tumor burden” value (CAG HPSE high cells [3]; mouse, in vivo) was 3/10, the “% of animals with kappa levels (above detection limit)” value (CAG HPSE high cells [4]) was 70% and the “animals with detectable levels of human immunoglobulin light chain (detectable tumor burden)” value (“animals with detectable levels” for short) (CAG HPSE high cells [4]) was 6/8. The “% of animals with kappa levels (above detection limit)” value (CAG HPSE high cells [5]; mouse, in vivo) was 89%, the “animals with detectable levels” value (CAG HPSE high cells [5]; mouse, in vivo) was 8/9 and the “extent of albuminuria and renal damage” value (diabetic nephropathy) was “markedly decreased”. For the same compound, the “decrease of viability (MTT), agent administered alone” value (HPSE-high cells) was “neither roneparstat or carfilzomib provided significant results”.
In the case of `N[C@@H](Cc1ccc(N(CCCl)CCCl)cc1)C(=O)O` [Melphalan], the survival (multiple myeloma) is given as 5 years, the “animals with detectable tumor burden” value (CAG HPSE high cells [3]; after initial melphalan treatment, PBS for the next two weeks) is given as 7/11 and the “% of animals with kappa levels (above detection limit)” value (CAG HPSE high cells [5]; [8]) is given as 70%. The “animals with detectable levels” value (CAG HPSE high cells [5]; [8]) was 7/10.
For `CC(C)C[C@H](NC(=O)[C@H](Cc1ccccc1)NC(=O)c1cnccn1)B(O)O` [Bortezomib], the “tumor growth in vivo” value [6] is given as “causes a delay in tumor growth”, the “% of animals with kappa levels (above detection limit)” value (CAG HPSE high cells [4]) is given as 75% and the “animals with detectable levels” value (CAG HPSE high cells [4]) is given as 8/10. For the same compound, the cytotoxicity in vitro [7] was “cytotoxic”.
